{"source": "paper PMC5078040", "about": "(Oncotarget, 2016)", "experiment_in_all_cases": "KinomeScan", "type_in_all_cases": "binding", "settings_in_all_cases": "1uM", "key": {"[1]": {"target": "T1, MRCKB (Homo sapiens, UniProt Q9Y5S2)", "T1 construct": "purchased DiscoveRx KINOMEscan"}, "[2]": {"target": "T2, ABL1(Y253F)-phosphorylated (Homo sapiens, UniProt P00519, Y253F)", "T2 construct": "purchased DiscoveRx KINOMEscan"}, "[3]": {"target": "T3, SRPK3 (Homo sapiens, UniProt Q9UPE1)", "T3 construct": "purchased DiscoveRx KINOMEscan"}, "[4]": {"target": "T4, ERN1 (Homo sapiens, UniProt O75460)", "T4 construct": "purchased DiscoveRx KINOMEscan"}, "[5]": {"target": "T5, EPHB6 (Homo sapiens, UniProt O15197)", "T5 construct": "purchased DiscoveRx KINOMEscan", "T5 sequence (O15197 32-1021)": "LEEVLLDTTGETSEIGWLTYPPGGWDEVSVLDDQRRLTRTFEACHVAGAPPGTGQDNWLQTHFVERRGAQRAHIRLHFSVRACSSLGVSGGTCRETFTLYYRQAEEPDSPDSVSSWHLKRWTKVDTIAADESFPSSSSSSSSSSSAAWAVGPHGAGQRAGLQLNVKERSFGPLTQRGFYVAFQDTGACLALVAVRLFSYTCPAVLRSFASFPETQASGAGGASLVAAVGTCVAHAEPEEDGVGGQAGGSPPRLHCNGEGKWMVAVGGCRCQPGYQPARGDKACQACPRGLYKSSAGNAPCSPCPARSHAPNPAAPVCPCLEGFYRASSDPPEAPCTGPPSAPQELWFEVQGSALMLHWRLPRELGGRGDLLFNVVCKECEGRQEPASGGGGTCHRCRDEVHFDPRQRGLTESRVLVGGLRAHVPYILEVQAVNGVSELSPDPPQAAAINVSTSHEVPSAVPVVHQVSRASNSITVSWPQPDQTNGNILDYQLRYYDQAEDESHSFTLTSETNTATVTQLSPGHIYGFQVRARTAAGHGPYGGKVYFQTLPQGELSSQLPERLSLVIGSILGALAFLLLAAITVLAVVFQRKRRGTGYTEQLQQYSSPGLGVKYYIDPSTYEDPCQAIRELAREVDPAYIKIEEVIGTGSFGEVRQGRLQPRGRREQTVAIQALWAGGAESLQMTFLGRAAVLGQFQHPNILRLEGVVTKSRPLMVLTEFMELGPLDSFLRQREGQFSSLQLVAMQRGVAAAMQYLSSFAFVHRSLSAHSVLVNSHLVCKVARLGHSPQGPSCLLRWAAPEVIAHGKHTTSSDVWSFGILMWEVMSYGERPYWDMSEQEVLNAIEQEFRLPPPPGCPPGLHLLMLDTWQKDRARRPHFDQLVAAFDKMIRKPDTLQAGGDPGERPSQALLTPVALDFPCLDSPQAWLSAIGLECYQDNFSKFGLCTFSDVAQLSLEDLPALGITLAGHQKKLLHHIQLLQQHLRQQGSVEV"}, "[6]": {"target": "T6, MYO3B (Homo sapiens, UniProt Q8WXR4)", "T6 construct": "purchased DiscoveRx KINOMEscan"}, "[7]": {"target": "T7, PRKX (Homo sapiens, UniProt P51817)", "T7 construct": "purchased DiscoveRx KINOMEscan"}, "[8]": {"target": "T8, PIK3CA(Q546K) (Homo sapiens, UniProt P42336, Q546K)", "T8 construct": "purchased DiscoveRx KINOMEscan", "T8 sequence (P42336 whole entry Q546K)": "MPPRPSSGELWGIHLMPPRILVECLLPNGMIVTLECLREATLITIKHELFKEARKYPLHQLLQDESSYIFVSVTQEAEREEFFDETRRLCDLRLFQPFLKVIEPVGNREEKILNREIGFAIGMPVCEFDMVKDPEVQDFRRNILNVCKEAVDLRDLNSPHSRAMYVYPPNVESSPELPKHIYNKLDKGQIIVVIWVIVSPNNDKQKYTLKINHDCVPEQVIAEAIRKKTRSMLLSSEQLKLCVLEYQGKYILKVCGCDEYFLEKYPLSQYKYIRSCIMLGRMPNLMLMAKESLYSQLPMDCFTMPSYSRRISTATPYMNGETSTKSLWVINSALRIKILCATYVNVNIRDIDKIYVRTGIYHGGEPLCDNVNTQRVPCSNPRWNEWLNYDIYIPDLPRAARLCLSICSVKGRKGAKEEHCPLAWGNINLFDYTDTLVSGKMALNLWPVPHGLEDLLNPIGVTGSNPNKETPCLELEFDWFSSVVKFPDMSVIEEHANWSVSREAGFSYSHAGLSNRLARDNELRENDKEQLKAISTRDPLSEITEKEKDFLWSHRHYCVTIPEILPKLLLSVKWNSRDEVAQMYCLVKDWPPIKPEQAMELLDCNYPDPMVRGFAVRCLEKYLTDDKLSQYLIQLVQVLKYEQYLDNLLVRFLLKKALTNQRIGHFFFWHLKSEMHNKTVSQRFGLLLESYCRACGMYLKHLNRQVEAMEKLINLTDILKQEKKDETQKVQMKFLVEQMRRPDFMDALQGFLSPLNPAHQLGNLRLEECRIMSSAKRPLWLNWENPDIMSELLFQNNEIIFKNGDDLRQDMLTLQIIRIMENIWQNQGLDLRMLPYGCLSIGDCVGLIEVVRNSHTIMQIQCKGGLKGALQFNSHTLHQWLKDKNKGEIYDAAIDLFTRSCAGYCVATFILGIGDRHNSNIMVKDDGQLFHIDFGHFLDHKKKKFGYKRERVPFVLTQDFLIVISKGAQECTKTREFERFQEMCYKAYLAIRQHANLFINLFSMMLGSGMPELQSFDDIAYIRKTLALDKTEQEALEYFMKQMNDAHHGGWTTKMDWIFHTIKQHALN"}, "[9]": {"target": "T9, SGK2 (Homo sapiens, UniProt Q9HBY8)", "T9 construct": "purchased DiscoveRx KINOMEscan"}, "[10]": {"target": "T10, S6K1 (Homo sapiens, UniProt P23443)", "T10 construct": "purchased DiscoveRx KINOMEscan"}, "[11]": {"target": "T11, JAK1(JH2domain-pseudokinase) (Homo sapiens, UniProt P23458)", "T11 construct": "JAK1(JH2domain-pseudokinase); purchased DiscoveRx KINOMEscan"}, "[12]": {"target": "T12, ASK2 (Homo sapiens, UniProt O95382)", "T12 construct": "purchased DiscoveRx KINOMEscan"}, "[13]": {"target": "T13, NEK7 (Homo sapiens, UniProt Q8TDX7)", "T13 construct": "purchased DiscoveRx KINOMEscan"}, "[14]": {"target": "T14, ERK5 (Homo sapiens, UniProt Q13164)", "T14 construct": "purchased DiscoveRx KINOMEscan"}, "[15]": {"target": "T15, MAK (Homo sapiens, UniProt P20794)", "T15 construct": "purchased DiscoveRx KINOMEscan"}, "[16]": {"target": "T16, ABL1(Q252H)-phosphorylated (Homo sapiens, UniProt P00519, Q252H)", "T16 construct": "purchased DiscoveRx KINOMEscan"}, "[17]": {"target": "T17, PLK2 (Homo sapiens, UniProt Q9NYY3)", "T17 construct": "purchased DiscoveRx KINOMEscan"}, "[18]": {"target": "RPS6KA5(Kin.Dom.2-C-terminal) (Homo sapiens, UniProt O75582)"}, "[19]": {"target": "T18, EGFR(L858R,T790M) (Homo sapiens, UniProt P00533, L858R/T790M)", "T18 construct": "purchased DiscoveRx KINOMEscan"}, "[20]": {"target": "T19, CDKL3 (Homo sapiens, UniProt Q8IVW4)", "T19 construct": "purchased DiscoveRx KINOMEscan"}, "[21]": {"target": "T20, NEK11 (Homo sapiens, UniProt Q8NG66)", "T20 construct": "purchased DiscoveRx KINOMEscan"}, "[22]": {"target": "T21, CTK (Homo sapiens, UniProt P42679)", "T21 construct": "purchased DiscoveRx KINOMEscan"}, "[23]": {"target": "T22, ABL1(F317L)-nonphosphorylated (Homo sapiens, UniProt P00519, F317L)", "T22 construct": "purchased DiscoveRx KINOMEscan"}, "[24]": {"target": "T23, LATS1 (Homo sapiens, UniProt O95835)", "T23 construct": "purchased DiscoveRx KINOMEscan"}, "[25]": {"target": "T24, RSK4(Kin.Dom.1-N-terminal) (Homo sapiens, UniProt Q9UK32)", "T24 construct": "RSK4(Kin.Dom.1-N-terminal); purchased DiscoveRx KINOMEscan"}, "[26]": {"target": "T25, ABL2 (Homo sapiens, UniProt P42684)", "T25 construct": "purchased DiscoveRx KINOMEscan"}, "[27]": {"target": "T26, FRK (Homo sapiens, UniProt P42685)", "T26 construct": "purchased DiscoveRx KINOMEscan"}, "[28]": {"target": "T27, PRKCH (Homo sapiens, UniProt P24723)", "T27 construct": "purchased DiscoveRx KINOMEscan"}, "[29]": {"target": "T28, EGFR(G719S) (Homo sapiens, UniProt P00533, G719S)", "T28 construct": "purchased DiscoveRx KINOMEscan"}, "[30]": {"target": "T29, ABL1(F317I)-nonphosphorylated (Homo sapiens, UniProt P00519, F317I)", "T29 construct": "purchased DiscoveRx KINOMEscan"}, "[31]": {"target": "T30, EGFR(S752-I759del) (Homo sapiens, UniProt P00533, DEL752-759)", "T30 construct": "purchased DiscoveRx KINOMEscan", "T30 sequence (P00533 with tags, fused parts or gaps DEL752-759 limits assumed)": "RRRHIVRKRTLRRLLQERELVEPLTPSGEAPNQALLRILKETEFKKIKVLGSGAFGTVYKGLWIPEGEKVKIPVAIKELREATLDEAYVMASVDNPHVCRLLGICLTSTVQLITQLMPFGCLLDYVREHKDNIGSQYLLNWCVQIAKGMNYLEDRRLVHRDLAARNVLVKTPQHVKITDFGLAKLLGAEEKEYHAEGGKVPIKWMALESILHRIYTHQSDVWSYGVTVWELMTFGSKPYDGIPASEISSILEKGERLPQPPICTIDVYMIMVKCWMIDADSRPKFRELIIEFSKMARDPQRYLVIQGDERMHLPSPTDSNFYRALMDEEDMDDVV"}, "[32]": {"target": "T31, TYK2(JH1domain-catalytic) (Homo sapiens, UniProt P29597)", "T31 construct": "TYK2(JH1domain-catalytic); purchased DiscoveRx KINOMEscan"}, "[33]": {"target": "T32, MAP4K3 (Homo sapiens, UniProt Q8IVH8)", "T32 construct": "purchased DiscoveRx KINOMEscan"}, "[34]": {"target": "T33, CDKL1 (Homo sapiens, UniProt Q00532)", "T33 construct": "purchased DiscoveRx KINOMEscan"}, "[35]": {"target": "T34, KIT(V559D,V654A) (Homo sapiens, UniProt P10721, V559D/V654A)", "T34 construct": "purchased DiscoveRx KINOMEscan"}, "[36]": {"target": "T35, MYLK (Homo sapiens, UniProt Q15746)", "T35 construct": "purchased DiscoveRx KINOMEscan", "T35 sequence (Q15746 whole entry)": "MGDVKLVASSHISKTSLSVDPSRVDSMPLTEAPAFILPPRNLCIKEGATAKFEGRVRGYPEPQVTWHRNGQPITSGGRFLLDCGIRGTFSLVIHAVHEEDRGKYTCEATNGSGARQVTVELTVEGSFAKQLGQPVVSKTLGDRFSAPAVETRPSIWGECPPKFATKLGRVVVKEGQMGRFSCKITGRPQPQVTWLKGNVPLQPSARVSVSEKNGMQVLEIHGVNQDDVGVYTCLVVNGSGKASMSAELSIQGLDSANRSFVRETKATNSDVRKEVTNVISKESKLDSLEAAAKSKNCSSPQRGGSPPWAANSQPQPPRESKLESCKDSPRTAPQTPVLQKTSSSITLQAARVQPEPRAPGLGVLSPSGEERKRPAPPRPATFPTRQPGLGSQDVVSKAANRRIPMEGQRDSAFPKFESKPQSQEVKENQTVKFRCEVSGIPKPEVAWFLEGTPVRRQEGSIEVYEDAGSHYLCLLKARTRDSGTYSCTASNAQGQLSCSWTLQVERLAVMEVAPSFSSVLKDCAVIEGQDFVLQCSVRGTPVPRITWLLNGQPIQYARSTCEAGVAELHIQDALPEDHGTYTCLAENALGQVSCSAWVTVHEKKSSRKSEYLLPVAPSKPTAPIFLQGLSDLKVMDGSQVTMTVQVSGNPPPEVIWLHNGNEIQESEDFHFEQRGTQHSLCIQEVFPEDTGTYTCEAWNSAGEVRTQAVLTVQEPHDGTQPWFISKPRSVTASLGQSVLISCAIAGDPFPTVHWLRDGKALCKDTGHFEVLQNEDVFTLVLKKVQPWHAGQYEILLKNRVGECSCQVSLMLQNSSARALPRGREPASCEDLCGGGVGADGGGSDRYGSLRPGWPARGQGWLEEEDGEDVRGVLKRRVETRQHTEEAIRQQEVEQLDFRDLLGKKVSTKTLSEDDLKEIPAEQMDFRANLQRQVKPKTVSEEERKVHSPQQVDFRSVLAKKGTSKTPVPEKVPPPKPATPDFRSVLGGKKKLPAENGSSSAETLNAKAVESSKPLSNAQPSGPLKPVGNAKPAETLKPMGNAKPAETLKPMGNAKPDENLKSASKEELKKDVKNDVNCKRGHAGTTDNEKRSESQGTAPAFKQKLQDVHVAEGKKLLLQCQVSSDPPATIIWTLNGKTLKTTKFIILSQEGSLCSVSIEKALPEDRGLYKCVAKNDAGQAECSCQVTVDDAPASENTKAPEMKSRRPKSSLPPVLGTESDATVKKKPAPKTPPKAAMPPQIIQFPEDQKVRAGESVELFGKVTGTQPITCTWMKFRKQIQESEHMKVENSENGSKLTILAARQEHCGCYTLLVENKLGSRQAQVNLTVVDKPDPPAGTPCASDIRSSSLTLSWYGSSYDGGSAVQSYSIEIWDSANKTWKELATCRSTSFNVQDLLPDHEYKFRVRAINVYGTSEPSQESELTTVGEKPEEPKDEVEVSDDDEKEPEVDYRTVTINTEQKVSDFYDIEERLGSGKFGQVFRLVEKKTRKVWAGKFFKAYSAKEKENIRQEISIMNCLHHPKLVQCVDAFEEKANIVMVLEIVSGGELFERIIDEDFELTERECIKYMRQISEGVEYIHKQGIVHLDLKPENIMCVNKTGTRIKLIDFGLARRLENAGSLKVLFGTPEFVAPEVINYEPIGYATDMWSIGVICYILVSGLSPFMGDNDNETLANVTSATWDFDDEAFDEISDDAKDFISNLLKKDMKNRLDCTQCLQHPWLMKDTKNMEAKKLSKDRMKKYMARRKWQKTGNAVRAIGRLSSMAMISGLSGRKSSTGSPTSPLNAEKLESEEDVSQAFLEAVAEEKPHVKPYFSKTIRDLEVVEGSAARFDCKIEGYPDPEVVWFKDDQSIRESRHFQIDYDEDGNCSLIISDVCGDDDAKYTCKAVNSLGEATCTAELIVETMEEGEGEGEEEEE"}, "[37]": {"target": "T36, ULK1 (Homo sapiens, UniProt O75385)", "T36 construct": "purchased DiscoveRx KINOMEscan"}, "[38]": {"target": "T37, ERBB2 (Homo sapiens, UniProt P04626)", "T37 construct": "purchased DiscoveRx KINOMEscan"}, "[39]": {"target": "T38, MLCK (Homo sapiens, UniProt Q32MK0)", "T38 construct": "purchased DiscoveRx KINOMEscan", "T38 sequence (Q32MK0 whole entry)": "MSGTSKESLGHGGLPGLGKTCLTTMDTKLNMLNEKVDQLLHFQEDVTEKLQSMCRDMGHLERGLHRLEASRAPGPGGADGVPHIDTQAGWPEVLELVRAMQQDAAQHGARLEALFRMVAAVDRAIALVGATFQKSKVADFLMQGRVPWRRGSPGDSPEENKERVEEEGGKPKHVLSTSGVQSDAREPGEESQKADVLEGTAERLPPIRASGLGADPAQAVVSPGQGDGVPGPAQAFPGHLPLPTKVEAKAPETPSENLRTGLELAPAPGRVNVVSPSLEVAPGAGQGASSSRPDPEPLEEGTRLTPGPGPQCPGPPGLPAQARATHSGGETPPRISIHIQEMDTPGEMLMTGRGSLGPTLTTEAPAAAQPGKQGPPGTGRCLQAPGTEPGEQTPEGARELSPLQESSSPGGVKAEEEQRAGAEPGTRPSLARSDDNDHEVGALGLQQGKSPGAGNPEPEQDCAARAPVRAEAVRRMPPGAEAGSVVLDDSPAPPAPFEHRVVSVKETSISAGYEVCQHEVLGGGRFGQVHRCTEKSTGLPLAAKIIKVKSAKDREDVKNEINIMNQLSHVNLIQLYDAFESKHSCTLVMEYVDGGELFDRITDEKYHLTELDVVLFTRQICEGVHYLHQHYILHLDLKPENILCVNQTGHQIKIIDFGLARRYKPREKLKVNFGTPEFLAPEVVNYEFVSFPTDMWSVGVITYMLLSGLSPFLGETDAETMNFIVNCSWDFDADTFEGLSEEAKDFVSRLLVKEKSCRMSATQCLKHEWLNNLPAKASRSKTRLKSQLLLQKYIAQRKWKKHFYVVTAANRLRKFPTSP"}, "[40]": {"target": "T39, CAMK1G (Homo sapiens, UniProt Q96NX5)", "T39 construct": "purchased DiscoveRx KINOMEscan"}, "[41]": {"target": "T40, FGR (Homo sapiens, UniProt P09769)", "T40 construct": "purchased DiscoveRx KINOMEscan"}}}
{"smiles": "Cc1nc(NC(=O)[C@@H](N)C(C)C)sc1-c1cnc(Cl)c(NS(=O)(=O)c2ccccc2)c1", "note": "[PI3KD-IN-015]", "values": [{"measurement": "KinomeScan MRCKB", "setting": "[1]", "value": 91}, {"measurement": "KinomeScan ABL1(Y253F)-phosphorylated", "setting": "[2]", "value": 100}, {"measurement": "KinomeScan SRPK3", "setting": "[3]", "value": 100}, {"measurement": "KinomeScan ERN1", "setting": "[4]", "value": 92}, {"measurement": "KinomeScan EPHB6", "setting": "[5]", "value": 100}, {"measurement": "KinomeScan MYO3B", "setting": "[6]", "value": 100}, {"measurement": "KinomeScan PRKX", "setting": "[7]", "value": 95}, {"measurement": "KinomeScan PIK3CA(Q546K)", "setting": "[8]", "value": 4.1}, {"measurement": "KinomeScan SGK2", "setting": "[9]", "value": 81}, {"measurement": "KinomeScan S6K1", "setting": "[10]", "value": 100}, {"measurement": "KinomeScan JAK1(JH2domain-pseudokinase)", "setting": "[11]", "value": 100}, {"measurement": "KinomeScan ASK2", "setting": "[12]", "value": 84}, {"measurement": "KinomeScan NEK7", "setting": "[13]", "value": 100}, {"measurement": "KinomeScan ERK5", "setting": "[14]", "value": 100}, {"measurement": "KinomeScan MAK", "setting": "[15]", "value": 72}, {"measurement": "KinomeScan ABL1(Q252H)-phosphorylated", "setting": "[16]", "value": 90}, {"measurement": "KinomeScan PLK2", "setting": "[17]", "value": 83}, {"measurement": "KinomeScan RPS6KA5(Kin.Dom.2-C-terminal)", "setting": "[18]", "value": 100}, {"measurement": "KinomeScan EGFR(L858R,T790M)", "setting": "[19]", "value": 100}, {"measurement": "KinomeScan CDKL3", "setting": "[20]", "value": 100}, {"measurement": "KinomeScan NEK11", "setting": "[21]", "value": 86}, {"measurement": "KinomeScan CTK", "setting": "[22]", "value": 93}, {"measurement": "KinomeScan ABL1(F317L)-nonphosphorylated", "setting": "[23]", "value": 100}, {"measurement": "KinomeScan LATS1", "setting": "[24]", "value": 98}, {"measurement": "KinomeScan RSK4(Kin.Dom.1-N-terminal)", "setting": "[25]", "value": 100}, {"measurement": "KinomeScan ABL2", "setting": "[26]", "value": 99}, {"measurement": "KinomeScan FRK", "setting": "[27]", "value": 97}, {"measurement": "KinomeScan PRKCH", "setting": "[28]", "value": 100}, {"measurement": "KinomeScan EGFR(G719S)", "setting": "[29]", "value": 100}, {"measurement": "KinomeScan ABL1(F317I)-nonphosphorylated", "setting": "[30]", "value": 100}, {"measurement": "KinomeScan EGFR(S752-I759del)", "setting": "[31]", "value": 100}, {"measurement": "KinomeScan TYK2(JH1domain-catalytic)", "setting": "[32]", "value": 100}, {"measurement": "KinomeScan MAP4K3", "setting": "[33]", "value": 91}, {"measurement": "KinomeScan CDKL1", "setting": "[34]", "value": 100}, {"measurement": "KinomeScan KIT(V559D,V654A)", "setting": "[35]", "value": 97}, {"measurement": "KinomeScan MYLK", "setting": "[36]", "value": 94}, {"measurement": "KinomeScan ULK1", "setting": "[37]", "value": 74}, {"measurement": "KinomeScan ERBB2", "setting": "[38]", "value": 100}, {"measurement": "KinomeScan MLCK", "setting": "[39]", "value": 95}, {"measurement": "KinomeScan CAMK1G", "setting": "[40]", "value": 94}, {"measurement": "KinomeScan FGR", "setting": "[41]", "value": 100}]}
